Values of other authors as cited in US20060083768A1, “Method of thickening a coating using a drug” (ATRIUM MEDICAL CORPORATION, priority 2004, published 2006).

System: Porcine Coronary Model
Settings: stents coated with agent solubilized in eicosapentaenoic acid oil vs eicosapentaenoic acid oil coated stents

Question: For C=C1[C@@H](C)[C@H]2[C@H](Cc3ccccc3)NC(=O)[C@]23[C@H](OC(C)=O)/C=C/[C@@](C)(O)C(=O)[C@@H](C)C/C=C/[C@H]3[C@@H]1O [cytochalasin D], which “less area stenosis compared to the control group” value is on record?
Answer: 38%

Question: What about the “less intimal hyperplasia compared to the control group” value of the same compound?
Answer: 39%
